PubChem BioAssay (NCI)
Where “and” joins values, the source holds several entries; their conditions need not be identical. Equal entries are not always repeated.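 Results reflect a 48-hour exposure of cells in 96-well plates to compound at five concentrations. GI50 marks 50% less growth. Definition used: TGI = concentration required for complete inhibition of growth.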

Assays:
Assay in all cases: inhibition of tumour cell growth, NCI panel, 48 h
RPMI-8226 leukemia = tested on: RPMI-8226 leukemia
UACC-257 melanoma = tested on: UACC-257 melanoma
786-0 renal = tested on: 786-0 renal
SNB-75 CNS = tested on: SNB-75 CNS
HCT-15 colon = tested on: HCT-15 colon
HT29 colon = tested on: HT29 colon
M14 melanoma = tested on: M14 melanoma
K-562 leukemia = tested on: K-562 leukemia
HOP-62 NSCLC = tested on: HOP-62 NSCLC
HS 578T breast = tested on: HS 578T breast

CC(=O)O[C@H]1[C@@H]2[C@@H]3[C@@H](C[C@H]1C)[C@@H](C)CO[C@@]1(C)CC/C=C(/C)C[C@@H]2O[C@@H]31
TGI (RPMI-8226 leukemia): > 100 µM
TGI (UACC-257 melanoma): > 100 µM
TGI (786-0 renal): > 100 µM
TGI (SNB-75 CNS): > 100 µM
TGI (HCT-15 colon): > 100 µM
TGI (HT29 colon): > 100 µM
TGI (M14 melanoma): > 100 µM
TGI (K-562 leukemia): > 100 µM
TGI (HOP-62 NSCLC): > 100 µM

FC(F)(F)c1ccc(C=NC23CC4CC(CC(C4)C2)C3)cc1
TGI (RPMI-8226 leukemia): > 100 µM
TGI (UACC-257 melanoma): > 100 µM
TGI (786-0 renal): > 100 µM
TGI (SNB-75 CNS): > 100 µM
TGI (HCT-15 colon): > 100 µM
TGI (HT29 colon): > 100 µM
TGI (M14 melanoma): > 100 µM
TGI (K-562 leukemia): > 100 µM
TGI (HOP-62 NSCLC): > 100 µM

COc1cc(-c2oc3c(OC)c(OC)cc(O)c3c(=O)c2OC)ccc1O
TGI (UACC-257 melanoma): > 100 µM
TGI (786-0 renal): > 100 µM
GI50 (SNB-75 CNS): 1.7 µM and > 5 µM
TGI (SNB-75 CNS): 8.54 µM and > 5 µM
TGI (HCT-15 colon): > 100 µM
TGI (HS 578T breast): 29.7 µM
TGI (HT29 colon): > 100 µM
GI50 (M14 melanoma): 3 µM and 6.26 µM
TGI (M14 melanoma): > 100 µM
TGI (K-562 leukemia): > 50 µM
GI50 (HOP-62 NSCLC): 4.01 µM and 14.7 µM
TGI (HOP-62 NSCLC): > 100 µM

CC(=O)OCC1OC(OC2CC3C(C)(C)C(OC(C)=O)CC[C@]3(C)C3CCC45CC4(CC[C@H]5C(C)CC(O)C4OC4(C)C)[C@]23C)C(O)C(O)C1O (stereo not given in full)
TGI (RPMI-8226 leukemia): 5 µM
GI50 (UACC-257 melanoma): 4.1 µM
TGI (UACC-257 melanoma): 7.28 µM and 14.7 µM
GI50 (786-0 renal): 3.58 µM
TGI (786-0 renal): 10.6 µM and 14.1 µM
GI50 (SNB-75 CNS): 3.7 µM
TGI (SNB-75 CNS): 8.23 µM and 12.4 µM
GI50 (HCT-15 colon): 4.04 µM
TGI (HCT-15 colon): 6 µM and 13.3 µM
GI50 (HT29 colon): 1.86 µM
TGI (HT29 colon): 1.73 µM and 3.38 µM
TGI (M14 melanoma): 6.75 µM and 6.61 µM
TGI (K-562 leukemia): 2.22 µM
GI50 (HOP-62 NSCLC): 2.39 µM
TGI (HOP-62 NSCLC): 12.6 µM and 5.37 µM

COc1cc(NN=C(c2ccc(O)cc2)c2ccc(O)cc2)c([N+](=O)[O-])cc1[N+](=O)[O-]
GI50 (RPMI-8226 leukemia): 1.5 µM
TGI (RPMI-8226 leukemia): > 100 µM
GI50 (UACC-257 melanoma): 15.5 µM
TGI (UACC-257 melanoma): 29.3 µM
GI50 (786-0 renal): 11.7 µM
TGI (786-0 renal): 24.8 µM
GI50 (SNB-75 CNS): 14.7 µM
TGI (SNB-75 CNS): 29.6 µM
GI50 (HCT-15 colon): 5.75 µM
TGI (HCT-15 colon): 20.1 µM
GI50 (HT29 colon): 10.9 µM
TGI (HT29 colon): 25.6 µM
GI50 (M14 melanoma): 11.4 µM
TGI (M14 melanoma): 24.7 µM
GI50 (K-562 leukemia): 3.92 µM
TGI (K-562 leukemia): > 100 µM
GI50 (HOP-62 NSCLC): 5.29 µM
TGI (HOP-62 NSCLC): 20.3 µM

Cc1ccc(NC(=O)CC(=O)n2nc(-c3ccccc3)c(N=Nc3ccc(Cl)cc3)c2-c2ccccc2)cc1
TGI (RPMI-8226 leukemia): 47.8 µM
TGI (UACC-257 melanoma): > 100 µM
TGI (786-0 renal): 45.2 µM
TGI (SNB-75 CNS): 70.9 µM
TGI (HCT-15 colon): > 100 µM
TGI (HT29 colon): 40.4 µM
TGI (M14 melanoma): > 100 µM
TGI (K-562 leukemia): 47.1 µM
TGI (HOP-62 NSCLC): > 100 µM

O=C(CC/C(C/C(=N/O)c1ccc(F)cc1)=N/O)N(Cc1ccccc1)Cc1ccccc1
TGI (RPMI-8226 leukemia): > 100 µM
TGI (UACC-257 melanoma): > 100 µM
TGI (786-0 renal): > 100 µM
TGI (SNB-75 CNS): > 100 µM
TGI (HCT-15 colon): > 100 µM
TGI (HT29 colon): > 100 µM
TGI (M14 melanoma): > 100 µM
TGI (K-562 leukemia): > 100 µM
TGI (HOP-62 NSCLC): > 100 µM

O=C1CC2CCCCC2=C1O (stereo not given)
TGI (RPMI-8226 leukemia): > 100 µM
TGI (UACC-257 melanoma): > 100 µM
TGI (786-0 renal): > 100 µM
TGI (SNB-75 CNS): > 100 µM
TGI (HCT-15 colon): > 100 µM
TGI (K-562 leukemia): > 100 µM
TGI (HOP-62 NSCLC): > 100 µM

CC1CCCC(C(O)CC2CC(=O)N(c3ccccc3)C(=O)C2)C1=O (stereo not given)
TGI (RPMI-8226 leukemia): > 100 µM
TGI (UACC-257 melanoma): > 100 µM
TGI (786-0 renal): > 100 µM
TGI (SNB-75 CNS): > 100 µM
TGI (HT29 colon): > 100 µM
TGI (M14 melanoma): > 100 µM
TGI (K-562 leukemia): > 100 µM
TGI (HOP-62 NSCLC): > 100 µM

C/C(=N\NC(=O)CC(=O)Nc1ccc(Cl)cc1)c1cc2ccccc2oc1=O
TGI (RPMI-8226 leukemia): > 100 µM
TGI (UACC-257 melanoma): > 100 µM
TGI (786-0 renal): > 100 µM
TGI (SNB-75 CNS): > 100 µM
TGI (HCT-15 colon): > 100 µM
TGI (HT29 colon): > 100 µM
TGI (M14 melanoma): > 100 µM
TGI (K-562 leukemia): > 100 µM
TGI (HOP-62 NSCLC): > 100 µM

Cn1cc2c(n1)c(N/N=C/c1ccccc1)nn1nnnc21
TGI (RPMI-8226 leukemia): > 100 µM
TGI (UACC-257 melanoma): > 100 µM
TGI (786-0 renal): > 100 µM
TGI (SNB-75 CNS): > 100 µM
TGI (HCT-15 colon): > 100 µM
TGI (HT29 colon): > 100 µM
TGI (M14 melanoma): > 100 µM
TGI (K-562 leukemia): > 100 µM
TGI (HOP-62 NSCLC): > 100 µM

C=CCNC1=C(C(=O)OCC)C(=O)CO1
TGI (RPMI-8226 leukemia): > 100 µM
TGI (UACC-257 melanoma): > 100 µM
TGI (786-0 renal): > 100 µM
TGI (SNB-75 CNS): > 100 µM
TGI (HCT-15 colon): > 100 µM
TGI (HT29 colon): > 100 µM
TGI (M14 melanoma): > 100 µM
TGI (K-562 leukemia): > 100 µM

CC[C@@]1(O)C(=O)OCc2c1cc1n(c2=O)Cc2cc3cc(OC)ccc3nc2-1
GI50 (RPMI-8226 leukemia): 0.0411 µM
TGI (RPMI-8226 leukemia): 8.46 µM and 1.23 µM
GI50 (UACC-257 melanoma): 0.0998 µM and 0.17 µM
TGI (UACC-257 melanoma): 1.54 µM
GI50 (786-0 renal): 0.0159 µM
TGI (SNB-75 CNS): 0.0491 µM
GI50 (HCT-15 colon): 0.223 µM
TGI (HCT-15 colon): 8.12 µM
GI50 (HT29 colon): 0.0864 µM
TGI (HT29 colon): 0.238 µM
GI50 (M14 melanoma): 0.127 µM
GI50 (K-562 leukemia): 0.0571 µM and 0.0344 µM
TGI (K-562 leukemia): > 100 µM
TGI (HOP-62 NSCLC): 0.948 µM

CC1C=C(OC(=O)c2ccccc2)C(=O)C(n2cc(F)c(=O)n(C(=O)c3ccccc3)c2=O)O1 (stereo not given)
TGI (RPMI-8226 leukemia): > 100 µM
TGI (UACC-257 melanoma): > 100 µM
TGI (786-0 renal): > 100 µM
TGI (SNB-75 CNS): 91.9 µM
TGI (HCT-15 colon): > 100 µM
TGI (HT29 colon): > 100 µM
TGI (M14 melanoma): > 100 µM
TGI (K-562 leukemia): 55.1 µM
TGI (HOP-62 NSCLC): > 100 µM
